The source made the active and inactive calls.
What was measured:
CAAX prenyl protease 2 = biological target: T1, CAAX prenyl protease 2 (Saccharomyces cerevisiae S288c, UniProt Q03530); assay type: biochemical
T1 sequence (Q03530 whole entry): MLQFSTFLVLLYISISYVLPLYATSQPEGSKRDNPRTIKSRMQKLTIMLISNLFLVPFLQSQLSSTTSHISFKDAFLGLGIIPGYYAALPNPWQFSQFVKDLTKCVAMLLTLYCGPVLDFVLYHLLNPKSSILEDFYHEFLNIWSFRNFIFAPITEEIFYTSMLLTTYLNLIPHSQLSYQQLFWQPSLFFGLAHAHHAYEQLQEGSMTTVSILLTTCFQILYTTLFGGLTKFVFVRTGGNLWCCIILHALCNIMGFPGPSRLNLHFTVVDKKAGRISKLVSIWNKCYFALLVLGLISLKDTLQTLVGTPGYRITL

[1] = biological target: G-protein coupled receptor 35 (Homo sapiens, UniProt Q9HC97); test: GPR35 antagonists blocking zaprinast-driven arrestin recruitment, primary screen, imaging, U2OS, beta-arrestin-GFP, zaprinast agonist (AID 2058); assay type: functional;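 further: antagonist potency meaning inhibition of agonist-induced arrestin redistribution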
Sequence of G-protein coupled receptor 35 (Q9HC97 whole entry): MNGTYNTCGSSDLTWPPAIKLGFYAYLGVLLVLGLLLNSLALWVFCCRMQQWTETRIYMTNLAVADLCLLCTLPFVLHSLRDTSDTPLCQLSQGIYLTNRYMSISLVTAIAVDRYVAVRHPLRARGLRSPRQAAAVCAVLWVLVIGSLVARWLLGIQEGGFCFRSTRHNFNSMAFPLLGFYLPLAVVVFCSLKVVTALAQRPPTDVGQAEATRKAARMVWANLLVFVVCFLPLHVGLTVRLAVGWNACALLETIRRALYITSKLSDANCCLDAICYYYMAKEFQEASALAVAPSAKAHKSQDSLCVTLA

[2] = biological target: T2, Heat shock factor protein 1 (Mus musculus, UniProt P38532); test: inhibition of MG132-induced HSE-luciferase signal, confirmation, cell-based, NIH3T3, luminescence, dose retest (AID 2382); assay type: functional;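 further: NIH3T3 fibroblasts with HSF1-driven luciferase reporter stressed by proteasome inhibitor MG132; luminescence from HSF1-driven luciferase expression after 8 hours of MG132 stress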
T2 sequence (P38532 whole entry): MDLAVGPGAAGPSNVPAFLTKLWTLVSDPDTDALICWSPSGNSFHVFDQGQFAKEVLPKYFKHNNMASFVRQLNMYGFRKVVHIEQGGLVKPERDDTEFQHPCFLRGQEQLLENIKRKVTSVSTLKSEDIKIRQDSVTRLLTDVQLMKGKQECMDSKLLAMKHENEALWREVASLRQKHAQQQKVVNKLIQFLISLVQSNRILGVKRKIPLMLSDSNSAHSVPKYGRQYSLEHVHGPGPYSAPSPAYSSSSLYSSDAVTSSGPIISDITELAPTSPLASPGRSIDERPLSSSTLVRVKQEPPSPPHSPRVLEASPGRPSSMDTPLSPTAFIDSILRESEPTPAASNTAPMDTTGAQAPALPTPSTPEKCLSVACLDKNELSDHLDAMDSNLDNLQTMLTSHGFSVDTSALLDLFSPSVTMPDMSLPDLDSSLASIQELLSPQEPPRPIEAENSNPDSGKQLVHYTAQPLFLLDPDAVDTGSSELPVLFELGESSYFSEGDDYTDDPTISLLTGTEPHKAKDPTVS

[3] = biological target: Alkaline phosphatase, placental type (Homo sapiens, UniProt P05187); test: PLAP enzyme inhibitors, confirmation, biochemical, luminescence (AID 1512); assay type: functional
Sequence of Alkaline phosphatase, placental type (P05187 whole entry): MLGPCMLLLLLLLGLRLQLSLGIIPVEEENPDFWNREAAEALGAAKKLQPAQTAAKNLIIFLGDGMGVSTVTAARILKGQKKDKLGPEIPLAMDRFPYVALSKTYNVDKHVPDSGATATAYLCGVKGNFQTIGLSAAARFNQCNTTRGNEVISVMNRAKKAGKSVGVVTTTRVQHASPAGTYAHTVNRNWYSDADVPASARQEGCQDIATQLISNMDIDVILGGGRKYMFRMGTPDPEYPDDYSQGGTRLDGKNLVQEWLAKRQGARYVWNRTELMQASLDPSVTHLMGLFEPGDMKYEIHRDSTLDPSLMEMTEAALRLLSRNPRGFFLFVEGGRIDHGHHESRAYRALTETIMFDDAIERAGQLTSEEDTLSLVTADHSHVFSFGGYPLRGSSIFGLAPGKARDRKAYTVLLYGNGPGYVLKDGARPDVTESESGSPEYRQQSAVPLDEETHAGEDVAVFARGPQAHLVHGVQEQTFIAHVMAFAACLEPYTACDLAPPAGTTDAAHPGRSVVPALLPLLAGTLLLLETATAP

[4] = biological target: Glyceraldehyde-3-phosphate dehydrogenase (Homo sapiens, UniProt P04406)
Sequence of Glyceraldehyde-3-phosphate dehydrogenase (P04406 whole entry): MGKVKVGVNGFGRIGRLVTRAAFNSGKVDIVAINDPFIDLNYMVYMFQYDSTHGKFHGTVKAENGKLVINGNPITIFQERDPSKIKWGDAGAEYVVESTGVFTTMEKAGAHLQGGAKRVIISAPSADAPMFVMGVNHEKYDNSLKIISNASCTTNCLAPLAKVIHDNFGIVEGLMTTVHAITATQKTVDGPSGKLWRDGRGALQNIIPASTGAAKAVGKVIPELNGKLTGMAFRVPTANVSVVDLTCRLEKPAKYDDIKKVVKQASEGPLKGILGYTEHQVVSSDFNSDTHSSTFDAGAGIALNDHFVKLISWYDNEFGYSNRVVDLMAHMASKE

[5] = biological target: T3, Alkaline phosphatase, tissue-nonspecific isozyme (Homo sapiens, UniProt P05186); test: human TNAP enzyme inhibitors, SAR follow-up, biochemical, luminescent, dose response (AID 1056)
T3 sequence (P05186 whole entry): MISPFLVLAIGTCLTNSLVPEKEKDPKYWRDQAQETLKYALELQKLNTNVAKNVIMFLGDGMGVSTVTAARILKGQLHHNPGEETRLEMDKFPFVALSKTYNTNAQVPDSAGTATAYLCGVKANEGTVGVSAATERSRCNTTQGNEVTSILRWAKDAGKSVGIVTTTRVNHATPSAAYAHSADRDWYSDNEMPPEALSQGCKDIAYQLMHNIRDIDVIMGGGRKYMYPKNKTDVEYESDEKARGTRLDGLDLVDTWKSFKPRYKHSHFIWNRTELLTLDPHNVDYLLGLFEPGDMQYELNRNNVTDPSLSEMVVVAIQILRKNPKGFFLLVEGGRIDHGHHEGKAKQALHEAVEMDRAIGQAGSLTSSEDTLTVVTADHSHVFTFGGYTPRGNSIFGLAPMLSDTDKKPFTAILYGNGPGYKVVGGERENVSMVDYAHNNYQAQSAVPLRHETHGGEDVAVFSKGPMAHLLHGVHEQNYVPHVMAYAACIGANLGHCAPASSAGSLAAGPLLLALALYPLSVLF

[6] = Vero cell cytotoxicity, dose response, cytotoxicity control for Vif-APOBEC3G degradation inhibitor project, Vero cells (AID 1117358); assay type: functional; conditions: Human immunodeficiency virus 1, Vero
[7] = inhibitors of Vif binding to APOBEC3G peptide, primary screen, biochemical, TR-FRET, GST-Vif 1-94, biotin-A3G peptide, dose response retest (AID 1117319); assay type: functional;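 further: TR-FRET signal of purified GST-Vif binding a biotinylated A3G peptide; inhibitors lower the FRET signal by blocking Vif and A3G binding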
[8] = biological target: T2, Heat shock factor protein 1; test: HSF1 potentiators in luciferase reporter cells, confirmation, cell-based, NIH3T3, luminescence, dose retest (AID 435004); assay type: functional;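 further: stress induced by proteasome inhibitor MG132 added 30 min after compound; luciferase reporter driven by HSF1 response element in NIH3T3 cells; actives raise luminescence as potentiators of the MG132 stress response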
Estrogen receptor = biological target: T4, Estrogen receptor (Homo sapiens, UniProt P03372);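 further: potency for inhibiting coactivator peptide recruitment to the receptor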
T4 sequence (P03372 whole entry): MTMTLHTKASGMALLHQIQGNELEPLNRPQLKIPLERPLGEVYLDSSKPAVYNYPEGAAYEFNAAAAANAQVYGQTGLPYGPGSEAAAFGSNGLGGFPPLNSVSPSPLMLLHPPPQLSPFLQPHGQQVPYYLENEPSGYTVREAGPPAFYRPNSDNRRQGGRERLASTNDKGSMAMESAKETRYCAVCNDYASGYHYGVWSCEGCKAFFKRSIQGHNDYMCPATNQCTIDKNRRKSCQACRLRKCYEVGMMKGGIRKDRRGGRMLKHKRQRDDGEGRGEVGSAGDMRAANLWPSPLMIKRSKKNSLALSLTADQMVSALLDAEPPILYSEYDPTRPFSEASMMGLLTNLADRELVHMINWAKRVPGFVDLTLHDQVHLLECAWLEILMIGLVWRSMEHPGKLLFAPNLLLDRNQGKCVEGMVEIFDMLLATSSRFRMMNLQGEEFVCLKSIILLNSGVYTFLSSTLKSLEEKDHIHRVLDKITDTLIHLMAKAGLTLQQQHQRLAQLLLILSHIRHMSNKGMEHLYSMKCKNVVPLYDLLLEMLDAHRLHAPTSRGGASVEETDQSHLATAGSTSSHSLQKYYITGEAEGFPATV

BJ [9] = test: cytotoxicity toward BJ-TERT-LT-ST fibroblasts, dose response, cell-based, RAS-independent, luminescence (AID 1935); assay type: functional; conditions: Homo sapiens;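 further: BJ fibroblasts immortalized with TERT plus LT and ST oncogenes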
[10] = biological target: T5, Voltage-gated N-type calcium channel alpha-1B subunit/Amyloid beta A4 precursor protein-binding family A member 1 (Homo sapiens, UniProt Q00975+Q02410); assay type: protein assay
T5 sequence (Q00975 whole entry): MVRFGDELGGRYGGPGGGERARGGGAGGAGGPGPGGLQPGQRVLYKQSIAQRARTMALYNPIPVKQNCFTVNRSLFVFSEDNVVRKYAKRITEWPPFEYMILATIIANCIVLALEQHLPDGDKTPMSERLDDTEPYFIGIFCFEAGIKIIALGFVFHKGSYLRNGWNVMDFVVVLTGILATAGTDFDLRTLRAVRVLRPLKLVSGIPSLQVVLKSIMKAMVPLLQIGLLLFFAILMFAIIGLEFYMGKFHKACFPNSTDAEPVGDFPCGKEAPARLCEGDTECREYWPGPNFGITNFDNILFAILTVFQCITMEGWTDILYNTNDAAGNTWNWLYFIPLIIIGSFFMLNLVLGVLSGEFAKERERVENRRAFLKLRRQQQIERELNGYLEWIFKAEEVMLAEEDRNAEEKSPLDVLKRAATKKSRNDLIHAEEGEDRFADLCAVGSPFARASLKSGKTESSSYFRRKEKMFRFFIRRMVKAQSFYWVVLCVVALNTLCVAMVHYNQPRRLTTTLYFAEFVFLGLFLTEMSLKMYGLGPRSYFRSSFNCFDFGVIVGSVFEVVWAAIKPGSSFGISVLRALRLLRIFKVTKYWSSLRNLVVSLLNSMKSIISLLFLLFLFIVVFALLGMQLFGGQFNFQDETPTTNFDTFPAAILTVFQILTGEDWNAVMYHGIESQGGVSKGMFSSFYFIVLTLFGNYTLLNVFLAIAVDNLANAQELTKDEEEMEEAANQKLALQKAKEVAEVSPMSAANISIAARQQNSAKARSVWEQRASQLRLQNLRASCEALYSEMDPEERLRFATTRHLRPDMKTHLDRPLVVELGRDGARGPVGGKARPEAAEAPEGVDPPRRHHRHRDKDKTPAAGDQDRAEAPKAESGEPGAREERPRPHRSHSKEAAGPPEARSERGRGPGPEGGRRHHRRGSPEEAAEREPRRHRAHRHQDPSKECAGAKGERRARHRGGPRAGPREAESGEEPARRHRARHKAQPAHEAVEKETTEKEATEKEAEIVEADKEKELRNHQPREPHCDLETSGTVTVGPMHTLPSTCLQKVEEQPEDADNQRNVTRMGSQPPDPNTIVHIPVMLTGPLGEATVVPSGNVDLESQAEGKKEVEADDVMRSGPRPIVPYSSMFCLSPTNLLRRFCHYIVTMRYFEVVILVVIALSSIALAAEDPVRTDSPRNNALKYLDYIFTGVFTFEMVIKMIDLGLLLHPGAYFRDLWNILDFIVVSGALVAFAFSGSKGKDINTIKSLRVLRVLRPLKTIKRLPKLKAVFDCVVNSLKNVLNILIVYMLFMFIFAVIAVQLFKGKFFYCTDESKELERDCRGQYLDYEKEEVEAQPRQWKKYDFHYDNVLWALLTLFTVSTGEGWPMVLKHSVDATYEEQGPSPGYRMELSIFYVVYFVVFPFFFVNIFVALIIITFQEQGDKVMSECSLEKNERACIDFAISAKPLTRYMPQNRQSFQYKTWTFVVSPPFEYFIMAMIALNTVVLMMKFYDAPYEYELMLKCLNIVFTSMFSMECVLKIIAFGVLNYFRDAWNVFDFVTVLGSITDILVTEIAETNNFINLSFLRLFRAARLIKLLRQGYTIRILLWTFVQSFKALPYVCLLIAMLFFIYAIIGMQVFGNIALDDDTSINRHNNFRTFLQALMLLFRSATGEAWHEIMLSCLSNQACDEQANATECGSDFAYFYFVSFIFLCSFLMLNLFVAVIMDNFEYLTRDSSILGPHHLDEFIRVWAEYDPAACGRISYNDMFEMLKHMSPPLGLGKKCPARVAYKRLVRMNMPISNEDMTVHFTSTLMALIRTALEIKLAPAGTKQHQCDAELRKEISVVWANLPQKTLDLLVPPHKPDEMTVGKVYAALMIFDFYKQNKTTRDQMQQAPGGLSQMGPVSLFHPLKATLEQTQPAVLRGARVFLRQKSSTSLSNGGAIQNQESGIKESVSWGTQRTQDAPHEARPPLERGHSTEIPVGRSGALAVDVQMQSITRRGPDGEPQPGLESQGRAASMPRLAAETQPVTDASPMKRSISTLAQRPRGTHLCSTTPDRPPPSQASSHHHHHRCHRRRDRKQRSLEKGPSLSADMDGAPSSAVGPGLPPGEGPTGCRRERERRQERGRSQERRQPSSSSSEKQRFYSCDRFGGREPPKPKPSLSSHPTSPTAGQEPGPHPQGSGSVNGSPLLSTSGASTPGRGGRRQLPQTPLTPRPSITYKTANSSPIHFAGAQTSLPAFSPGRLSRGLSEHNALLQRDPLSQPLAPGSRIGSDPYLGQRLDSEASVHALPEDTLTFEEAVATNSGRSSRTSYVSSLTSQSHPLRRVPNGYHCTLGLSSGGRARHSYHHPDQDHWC
T5 sequence (Q02410 whole entry): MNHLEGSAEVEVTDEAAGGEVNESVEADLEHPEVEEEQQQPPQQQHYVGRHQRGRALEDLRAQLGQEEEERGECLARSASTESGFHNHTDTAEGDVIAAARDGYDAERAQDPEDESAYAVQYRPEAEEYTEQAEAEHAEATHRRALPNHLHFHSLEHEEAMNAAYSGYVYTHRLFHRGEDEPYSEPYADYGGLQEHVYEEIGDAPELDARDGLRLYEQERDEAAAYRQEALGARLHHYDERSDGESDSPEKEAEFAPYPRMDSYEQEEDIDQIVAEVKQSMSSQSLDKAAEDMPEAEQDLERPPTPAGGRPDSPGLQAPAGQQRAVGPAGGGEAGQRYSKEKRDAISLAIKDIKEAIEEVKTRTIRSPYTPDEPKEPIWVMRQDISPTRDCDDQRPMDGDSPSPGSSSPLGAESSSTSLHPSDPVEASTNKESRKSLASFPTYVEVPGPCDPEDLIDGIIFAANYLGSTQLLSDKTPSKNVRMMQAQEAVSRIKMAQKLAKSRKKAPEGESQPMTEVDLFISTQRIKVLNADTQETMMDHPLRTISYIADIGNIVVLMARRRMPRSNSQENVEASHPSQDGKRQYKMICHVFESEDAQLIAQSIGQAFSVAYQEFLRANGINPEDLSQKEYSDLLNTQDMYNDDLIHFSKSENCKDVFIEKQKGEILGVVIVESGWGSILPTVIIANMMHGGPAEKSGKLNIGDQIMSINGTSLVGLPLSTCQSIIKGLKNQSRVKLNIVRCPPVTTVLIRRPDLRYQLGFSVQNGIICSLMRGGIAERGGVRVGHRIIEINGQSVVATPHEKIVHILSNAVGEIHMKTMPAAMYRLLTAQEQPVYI

[11] = biological target: T5, Voltage-gated N-type calcium channel alpha-1B subunit/Amyloid beta A4 precursor protein-binding family A member 1; assay type: protein assay; remark: listed apart in the source
[12] = cytotoxicity toward DRD oncogenic fibroblasts, dose response, cell-based, non-viral oncogenic, luminescence (AID 1934); assay type: functional; conditions: Homo sapiens
Bcl-2-like protein 10 = biological target: T6, Bcl-2-like protein 10 (Homo sapiens, UniProt Q9HD36); test: displacers of TR3 peptide from Bcl-B, primary screen, selectivity assay for Bfl-1 inhibitor project, biochemical, fluorescence polarization, FITC-TR3 peptide (AID 748);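 further: fluorescence polarization from a fluorescein-labelled TR3 peptide binding purified Bcl-B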
T6 sequence (Q9HD36 whole entry): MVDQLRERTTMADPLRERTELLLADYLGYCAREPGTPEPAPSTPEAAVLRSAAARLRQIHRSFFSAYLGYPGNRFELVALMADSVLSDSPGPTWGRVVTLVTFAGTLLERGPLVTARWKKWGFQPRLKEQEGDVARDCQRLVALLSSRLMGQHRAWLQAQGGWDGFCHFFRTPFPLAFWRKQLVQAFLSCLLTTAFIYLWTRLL

BJ [13] = test: cytotoxicity toward BJ-TERT fibroblasts, dose response, cell-based, RAS-independent, luminescence (AID 1933); assay type: functional; conditions: Homo sapiens
BJ [14] = test: cells; assay type: functional, cell-based; conditions: Homo sapiens
[15] = biological target: T7, Bifunctional protein GlmU (Mycobacterium tuberculosis, UniProt P9WMN3); test: Inhibitors of Mycobacterial Glucosamine-1-phosphate acetyl transferase (GlmU). Secondary screen.; parameters: species or system Mycobacterium tuberculosis H37Rv
T7 sequence (P9WMN3 whole entry): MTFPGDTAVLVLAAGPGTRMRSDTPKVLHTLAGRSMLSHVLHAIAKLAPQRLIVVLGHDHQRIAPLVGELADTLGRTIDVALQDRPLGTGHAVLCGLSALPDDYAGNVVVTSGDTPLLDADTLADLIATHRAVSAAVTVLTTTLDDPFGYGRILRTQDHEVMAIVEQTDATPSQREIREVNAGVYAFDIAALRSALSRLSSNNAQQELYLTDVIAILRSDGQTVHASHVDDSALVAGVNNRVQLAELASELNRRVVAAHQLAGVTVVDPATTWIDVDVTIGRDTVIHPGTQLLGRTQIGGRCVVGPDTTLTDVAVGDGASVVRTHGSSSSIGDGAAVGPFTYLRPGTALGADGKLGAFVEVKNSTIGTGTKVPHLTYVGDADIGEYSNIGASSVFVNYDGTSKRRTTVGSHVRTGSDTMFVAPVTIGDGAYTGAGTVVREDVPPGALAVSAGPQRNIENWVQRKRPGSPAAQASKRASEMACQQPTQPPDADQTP

[16] = biological target: 26S proteasome non-ATPase regulatory subunit 14 (Homo sapiens, UniProt O00487); test: inhibition of proteasome subunit RPN11 – biochemical, fluorescence polarization, uHTS hits, confirmation (AID 602368); assay type: functional
Sequence of 26S proteasome non-ATPase regulatory subunit 14 (O00487 whole entry): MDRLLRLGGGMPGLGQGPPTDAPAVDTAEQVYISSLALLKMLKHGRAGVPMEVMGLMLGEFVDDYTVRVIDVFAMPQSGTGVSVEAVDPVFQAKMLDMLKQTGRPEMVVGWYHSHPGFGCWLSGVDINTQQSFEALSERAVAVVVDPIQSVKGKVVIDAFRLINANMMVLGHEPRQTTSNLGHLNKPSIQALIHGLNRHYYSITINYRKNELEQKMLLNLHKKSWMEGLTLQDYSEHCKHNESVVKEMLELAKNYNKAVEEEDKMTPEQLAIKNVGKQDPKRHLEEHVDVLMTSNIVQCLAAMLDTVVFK

[17] = biological target: 72 kDa type IV collagenase (Homo sapiens, UniProt P08253); test: Dose Response validation of uHTS RPN11 inhibitor hits using a MMP-2 Fluorescence assay.; assay type: functional
[18] = biological target: Dual specificity tyrosine-phosphorylation-regulated kinase 1A (Rattus norvegicus, UniProt Q63470); assay type: biochemical, Homo sapiens
Streptokinase A = biological target: T8, Streptokinase A (Streptococcus pyogenes serotype M1, UniProt P10520); test: S. pyogenes streptokinase expression inhibitors, potency, dose response, plasminogen activation absorbance, OD405 (AID 1914); assay type: functional, Streptococcus pyogenes M1 GAS;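 further: secreted streptokinase activity via plasminogen activation per viability signal from cell pellet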
T8 sequence (P10520 whole entry): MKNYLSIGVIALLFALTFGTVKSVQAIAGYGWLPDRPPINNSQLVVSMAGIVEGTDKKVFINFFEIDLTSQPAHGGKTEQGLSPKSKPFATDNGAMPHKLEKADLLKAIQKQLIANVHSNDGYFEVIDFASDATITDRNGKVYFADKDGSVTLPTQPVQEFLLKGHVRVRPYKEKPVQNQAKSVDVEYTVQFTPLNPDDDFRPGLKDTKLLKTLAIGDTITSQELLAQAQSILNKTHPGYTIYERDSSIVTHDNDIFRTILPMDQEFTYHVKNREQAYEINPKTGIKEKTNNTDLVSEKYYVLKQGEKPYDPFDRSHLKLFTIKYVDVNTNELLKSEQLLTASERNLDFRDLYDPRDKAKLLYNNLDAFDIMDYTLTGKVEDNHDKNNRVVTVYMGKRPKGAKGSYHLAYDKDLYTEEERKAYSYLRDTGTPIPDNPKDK

[19] = biological target: Induced myeloid leukemia cell differentiation protein Mcl-1 (Homo sapiens, UniProt Q07820); assay type: functional
Sequence of Induced myeloid leukemia cell differentiation protein Mcl-1 (Q07820 whole entry): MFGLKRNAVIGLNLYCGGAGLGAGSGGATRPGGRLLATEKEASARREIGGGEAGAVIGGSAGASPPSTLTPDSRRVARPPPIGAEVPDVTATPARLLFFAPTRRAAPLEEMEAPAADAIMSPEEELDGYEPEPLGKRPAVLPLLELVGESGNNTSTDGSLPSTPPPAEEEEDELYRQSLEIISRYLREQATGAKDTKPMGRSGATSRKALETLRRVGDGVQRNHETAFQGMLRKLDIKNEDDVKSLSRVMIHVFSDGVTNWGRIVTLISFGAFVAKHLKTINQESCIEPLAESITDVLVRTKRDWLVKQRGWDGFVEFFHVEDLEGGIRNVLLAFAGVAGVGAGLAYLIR

Streptococcus = test: Group A Streptococcus viability loss, dose response, counter-screen for streptokinase expression inhibitor project, luminescence, BacTiterGlo (AID 1915); assay type: functional, organism-based;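 further: potency for reduction of bacterial viability or growth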
Large T antigen = Large T antigen (Simian virus 40, UniProt P03070); assay type: functional, Betapolyomavirus macacae;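 further: Confirmatory-stage PubChem screen for compounds that inhibit SV40 T antigen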
Prothrombin = Prothrombin (Bos taurus, UniProt P00735); test: thrombin inhibition, dose response, biochemical, fluorescence polarization, uHTS hits (AID 602369); assay type: functional
[20] = test system: Streptococcus sp. 'group A'; test: growth inhibition of control SK(-) GAS strain, dose response, counter-screen for streptokinase expression inhibitor project, luminescence, kanamycin, BacTiterGlo, confirmation (AID 1900); assay type: functional, organism-based

## CC(C)c1c(C(=O)N/N=C/c2ccsc2)nnn1-c1nonc1N
CAAX prenyl protease 2
  AC50: 0.343 µM (active)

## CC(=O)c1ccc(NC(=O)C(C)n2nc(-c3ccccc3)c3cc(Cl)ccc32)cc1 (configuration not stated)
[1]
  IC50: 1.78 µM (active)
[2]
  EC50: > 195 µM (not active)

## COc1ccc(Cc2nc3c4cnn(C)c4ncn3n2)cc1
[3]
  IC50: > 100 µM (inactive)
[4]
  IC50: > 100 µM (not active)
[5]
  IC50: > 100 µM (inactive)

## CCn1nc(C)c(/C=N/NC(=O)c2ccc3c(c2)c(C)c(C)n3Cc2ccccc2)c1C
[3]
  IC50: > 100 µM (inactive)

## COc1ccc(OC)c(S(=O)(=O)Nc2cnc3ccccc3c2)c1
[6]
  CC50: > 40 µM (active)
[3]
  IC50: > 100 µM (inactive)
[4]
  IC50: > 100 µM (not active)
[7]
  IC50: > 100 µM (active)

## CC(=O)Oc1ccc(C(=O)Nc2ccc(S(=O)(=O)NCC3CCCO3)cc2)cc1 (configuration not stated)
CAAX prenyl protease 2
  AC50: 68.7 µM (active)

## Cc1c(C(=O)OCC2CCCO2)[nH]c2c1C(=O)CC(c1ccco1)C2 (configuration not stated)
[8]
  EC50: > 260 µM (inactive)
Estrogen receptor
  IC50: 32.1 µM (not active)
BJ [9]
  EC50: 23.6 µM (active)
[10]
  IC50: 21.9 µM (active)
[11]
  IC50: > 50 µM (inactive)
[12]
  EC50: 21.8 µM (active)
Bcl-2-like protein 10
  IC50: 23.8 µM (active)
BJ [13]
  EC50: 12.2 µM (active)
BJ [14]
  EC50: 36.9 µM (active)

## N=C1/C(=C\c2ccc(-c3cccc(C(=O)O)c3)o2)C(=O)N=C2SC=C(c3ccccc3)N12
[1]
  IC50: 2.29 µM (active)
[15]
  IC50: 129 µM (active)
[16]
  IC50: 7.84 µM (active)
[17]
  IC50: 9.07 µM (active)
[18]
  AC50: 2.19 µM (active)
Streptokinase A
  EC50: > 150 µM (not active)
[19]
  IC50: 1.55 µM (active)
Streptococcus
  EC50: 8.79 µM (active)
Large T antigen
  IC50: 92.2 µM (active)
Prothrombin
  IC50: 15.8 µM (active)
[20]
  EC50: 0.743 µM (active)

From ChEMBL document CHEMBL1201862, “PubChem BioAssay data set” (2004)
